From patent US20240410831A1, “Multi-Mode Zinc-Selective Emission-Ratiometric Fluorescent Probes for Biological Application” (Georgia Tech Research Corporation, priority 2023, published 2024)

What was measured:
[1] = tested on: live mouse fibroblast 3T3 cells; experiment: Ratiometric imaging of labile Zn(II) by TPEM (excitation at 750 nm); type: cell-based
Procedure: With reference to FIG. 7A, emission-ratiometric imaging of labile Zn(II) pools in live mouse fibroblast 3T3 cells with Formula I, Formula II, and/or a derivative thereof (e.g., for example probe 8) by TPEM (excitation at 750 nm). (A) of FIG. 7A Left: The emission was collected with 520 nm-600 nm (BP2) and 440 nm-495 nm (BP1) bandpass filters respectively. Right: Intensity ratio images with R=BP2/BP1. (B) of FIG. 7A Left: Ratio images (BP2/BP1) before (prior to t=5 min) and after the addition of 50 μM ZnSO4 and 5.0 μM pyrithione. Addition of TPEN at t=15 min resulted the reversal of the initial of fluorescence ratio change. (C) of FIG. 7A Mean fluorescence ratio of the cytoplasmic region averaged over 10 cells (P values calculated for n=10 using a two-tailed test). (D) of FIG. 7A Time course of the average ratio change for the mean fluorescence ratio in the cytosol averaged over 10 cells.
To evaluate the Zn(II)-dependent ratiometric response of Formula I and/or Formula IA (e.g., for example probe 8) in live cells, imaging experiments were performed with live mouse fibroblasts (3T3) as model cell line.
(§1) In various embodiments, mouse fibroblast (3T3) cells were grown on poly-L-lysine treated glass bottom culture dishes (MatTek) to 90% confluency in DMEM growth media supplemented with 10% bovine calf serum, and 1% penicillin-streptomycin. Before imaging, the media was replaced with pre-warmed colorless serum-free DMEM (1% penicillin-streptomycin, and 1% sodium pyruvate) containing 1.0 μM of probe 8. The cells were incubated at 37° C. under an atmosphere of humidified air containing 5% CO2 for 15 mins. The incubation solution was replaced with prewarmed colorless serum free DMEM. Images were acquired at 37° C., 8% humidity, and 5% CO2 using a Zeiss LSM NLO 710 microscope equipped with a femtosecond pulsed Ti:sapphire laser and a blue 405 nm laser. Scanning fluorescence micrographs were acquired with excitation at 405 nm or 750 nm and the emission was simultaneously collected with bandpass ranges of 495-440 nm (BP1) and 600-520 nm (BP2). Image J was used to evaluate the change in fluorescence emission ratio over time as previously described. The emission ratio for each region of interest was averaged at each time point.
TPEN solid was fully dissolved in anhydrous DMSO to a concentration of 3.0 mM. The stock solution was further diluted to 1.0 mM in pre-warmed phenol-red-free DMEM media before each imaging experiments. The ZnSO4 stock solution was prepared in DI H2O and the pyrithione stock solution was prepared in anhydrous DMSO to a concentration of 3.0 mM. The stock solution of Zn(II)/pyrithione was prepared and diluted with phenol red free DMEM. To determine the limiting emission intensity ratios Rmin and Rmax, mouse fibroblast cells were supplemented with Zn(II)-pyrithione (50 μM ZnSO4 and 5.0 μM pyrithione), and then TPEN (100 μM).

[2] = tested on: live mouse fibroblast 3T3 cells; experiment: Ratiometric imaging of labile Zn(II) by laser confocal fluorescence microscopy (excitation at 405 nm); type: cell-based; conditions: for average fluorescence ratio R (BP2/BP1): confocal 405 nm
Procedure: With reference to FIG. 7B, ratiometric imaging of labile Zn(II) pools in live mouse fibroblast 3T3 cells with Formula I and/or Formula IA (e.g., for example probe 8) by TPEM (excitation at 405 nm). (A) of FIG. 7B Left: Intensities acquired with 520 nm-600 nm (BP2) and 440 nm-495 nm (BP1) bandpass filters respectively. Right: Intensity ratio imagines with R=BP2/BP1. (B) of FIG. 7B Left: Ratio images (BP2/BP1) before (prior to t=5 min) and after the addition of 50 μM ZnSO4 and 5.0 μM pyrithione. Addition of TPEN at t=15 min resulted the reversal of the initial fluorescence ratio change. (C) of FIG. 7B: Mean fluorescence ratio of the cytoplasmic region averaged over 10 cells (P values calculated for n=10 using a two-tailed test). (D) of FIG. 7B: Time course of the average ratio change for mean fluorescence ratio in the cytosol averaged over 10 cells.
To investigate whether Formula I, Formula II, and/or a derivative thereof (e.g., for example probe 8) may also be employed with one-photon excitation at 405 nm, the imagine experiment was repeated with a conventional confocal fluorescence microscope equipped with a 405 nm laser as the excitation source. […] The averaged fluorescence ratio indicated a uniform fractional saturation with an average ratio of R=0.57±0.04. […] The difference in fluorescence ratios is likely due to differences in the absorption cross sections for linear vs. non-linear excitation. In principle, the ratio response could be further tuned by adjusting the sensitivity of the bandpass detectors.
as §1
TPEN solid was fully dissolved in anhydrous DMSO to a concentration of 3.0 mM. […]

## COc1ccc2c(c1)C(C)(C)c1nc(-c3cccc(CN(Cc4ncccn4)Cc4ncccn4)n3)sc1-2 [probe 8]
[1]; 3T3 cells, TPEM
  cellular uptake: readily internalized
[1]; after 50 μM ZnSO4 and 5.0 μM pyrithione, TPEM 750 nm
  average fluorescence ratio R (BP2/BP1): 1.35±0.16
[1]; after TPEN, TPEM 750 nm
  average fluorescence ratio R (BP2/BP1): 0.59±0.05
[1]; after Zn(II)/pyrithione against basal, TPEM 750 nm
  increase of fluorescence ratio: more than 2 fold
[1]; basal, 1.0 μM probe, TPEM 750 nm
  average fluorescence ratio R (BP2/BP1): 0.59±0.06
[2]; 3T3 cells, confocal
  cellular uptake: readily internalized
[2]; after TPEN
  average fluorescence ratio R (BP2/BP1): 0.56±0.04
[2]; after Zn(II) and ionophore pyrithione
  average fluorescence ratio R (BP2/BP1): 1.04±0.12
[2]; basal
  average fluorescence ratio R (BP2/BP1): 0.57±0.04
